Experimental data as given in patent publication US11716994B2, “Combinations of Yersinia entomophaga and pesticides or other substances” (priority 2017, dated 2023).
Where two headings read alike, the source gives them in different places.

Tests used:
cabbage looper [1] = settings: for LT50 Chem. / % Mort. Chem.: Cabbage Looper
Experimental: To produce cell free filtrates, cultures of Yersinia entomophaga grown in LB medium were centrifuged at 11,448 (g) for 10 minutes. The supernatant was decanted from the centrifuged pellet and filtered through a 0.22 μm filter. Assays were performed to determine concentrations of Yen-TC (toxin complex) using ELISA, and chitinase by measuring chitinase activity on specific substrates. […] This was done to estimate relative potency of the cell free filtrates. Insects were first pre-screened with a range of dilutions of cell free filtrates to select a concentration that provided moderate activity. […] Based on these initial screens, undiluted cell free filtrate was used for cabbage looper, fall armyworm, black cutworm, and Colorado potato beetle. […] In each of the Examples below, this is expressed as 1%.
Cabbage leaf disks were dipped in either acetone (controls and Y. entomophaga alone treatments) or novaluron (Sigma 32419) at 1.0 mg/L in acetone. These were set to dry for 1 hr. […] After the cabbage disks had dried for 1 hr, a single 3rd instar cabbage looper was added to each individual cabbage disk. A total of 20 insects were evaluate for each treatment. Insects were observed daily and scored as live or dead.

fall armyworm = assay: Leaf disk mortality assay, Y. entomophaga cells with chemical insecticides; settings: for LT50 (95% confidence intervals) in days: 3rd instar; for LT50 (95% confidence intervals) in days / mortality at 60 µg/mL: clothianidin 60 mg/L; for mortality at 60 µg/mL: Spodoptera frugiperda, foliar; for % Mort. Chem.: fall armyworm, Clothianidin 60 mg/L
diamondback moth [2] = assay: whole plant or invertebrate; settings: for LT50 (95% confidence intervals): 2nd instar diamondback moth; for LT50 (95% confidence intervals) / mortality at 60 µg/mL / mortality at 0.29 µg/mL: alone or combined; for LT50 Chem. / % Mort. Chem.: Diamondback moth; for mortality at 60 µg/mL / mortality at 0.29 µg/mL: Plutella xylostella, foliar, Abbott's corrected
Source text: (§1) These were set to dry for 1 hr.
as §1
These were set to dry for 1 hr. Cabbage disks were then dipped in either 1% Luria broth (LB) media solution (controls and thiacloprid alone treatments) or in 1% cell free filtrate from a culture Y. entomophaga isolate O24G3R (Y. entomophaga alone or in combination with thiacloprid treatments).

black cutworm = assay: Leaf disk mortality assay, Y. entomophaga cells with chemical insecticides; settings: for LT50 Chem. / % Mort. Chem.: black cutworm
cabbage looper [3] = test system: cabbage looper
diamondback moth [4] = assay: Leaf disk mortality assay, Y. entomophaga cells with chemical insecticides; settings: for mortality at 150 µg/mL / mortality at 0.29 µg/mL: Plutella xylostella, foliar; for % Mort. Chem. / LT50 Chem.: diamondback moth
Colorado potato beetle = assay: Tomato leaf disk mortality assay, Y. entomophaga cells with chemical insecticides; settings: for LT50 (95% confidence intervals): isolate O43NEW 1×10^7 cfu/mL; for % Mort. Chem. / LT50 Chem.: Colorado potato beetle; for % Mort. Chem.: 5 DAT; for mortality at 120 µg/mL / mortality at 0.88 µg/mL: Leptinotarsa decemlineata, in Solanum lycopersicum, foliar
[5] = 120 h, read-out: % Mortality (5DAT)
[6] = 144 h, read-out: % Mortality (6DAT)
[7] = 96 h, read-out: % Mortality (4DAT)
[8] = 48 h, read-out: % Mortality (2DAT)
[9] = 168 h, read-out: % Mortality (7DAT)
[10] = 3rd instar, deltamethrin 0.175 mg/L, isolate O43NEW 1×10^4 cfu/mL
[11] = 3rd instar, deltamethrin 1.75 mg/L, isolate O43NEW 1×10^4 cfu/mL

CN/C(=N\[N+](=O)[O-])NCc1cnc(Cl)s1 [Clothianidin]
LT50 Chem. (cabbage looper [1]; clothianidin 60 mg/L): 9.07 days | % Mort. Chem. (cabbage looper [1]; clothianidin 60 mg/L, 5 DAT): 30% | LT50 (95% confidence intervals) in days (fall armyworm; isolate O24G3R 1×10^5 cfu/mL): 9.38 (8.57-10.27) days | LT50 (95% confidence intervals) in days (fall armyworm; isolate O43NEW 1×10^5 cfu/mL): 10.94 (9.97-12.03) days | LT50 (95% confidence intervals) in days (fall armyworm; isolate O333A4 1×10^5 cfu/mL): 22.94 (19.21-27.62) days | mortality at 60 µg/mL (fall armyworm; 96 h, read-out: % Mortality (4DAT), 3rd instar, isolate O333A4 1×10^5 cfu/mL): 0% | mortality at 60 µg/mL (fall armyworm; 120 h, read-out: % Mortality (5DAT), 3rd instar, isolate O24G3R 1×10^5 cfu/mL): 5% | mortality at 60 µg/mL (fall armyworm; 120 h, read-out: % Mortality (5DAT), 3rd instar, isolate O333A4 1×10^5 cfu/mL): 0% | mortality at 60 µg/mL (fall armyworm; 144 h, read-out: % Mortality (6DAT), 3rd instar, isolate O24G3R 1×10^5 cfu/mL): 11% | mortality at 60 µg/mL (fall armyworm; 168 h, read-out: % Mortality (7DAT), 3rd instar, isolate O43NEW 1×10^5 cfu/mL): 0% | mortality at 60 µg/mL (fall armyworm; 168 h, read-out: % Mortality (7DAT), 3rd instar, isolate O333A4 1×10^5 cfu/mL): 5% | mortality at 60 µg/mL (fall armyworm; 240 h, read-out: % Mortality (10DAT), 3rd instar, isolate O43NEW 1×10^5 cfu/mL): 0% | mortality at 60 µg/mL (fall armyworm; 312 h, read-out: % Mortality (13DAT), 3rd instar, isolate O43NEW 1×10^5 cfu/mL): 11% | % Mort. Chem. (fall armyworm; 5 DAT): 5% | % Mort. Chem. (fall armyworm; 7 DAT): 5% | % Mort. Chem. (fall armyworm; 10 DAT): 0% | LT50 (95% confidence intervals) (diamondback moth [2]; clothianidin 60 mg/L, O43NEW filtrate 1%): 6.120 days | LT50 Chem. (diamondback moth [2]; clothianidin 60 mg/L): 6.12 days | % Mort. Chem. (diamondback moth [2]; clothianidin 60 mg/L, 4 DAT): 47% | mortality at 60 µg/mL (diamondback moth [2]; 96 h, read-out: % Mortality (4DAT), 2nd instar diamondback moth, clothianidin 60 mg/L, O43NEW filtrate 1%, 4 DAT): 47% | mortality at 60 µg/mL (diamondback moth [2]; 120 h, read-out: % Mortality (5DAT), 2nd instar diamondback moth, clothianidin 60 mg/L, O43NEW filtrate 1%, 5 DAT): 53%

CC1(C)C(C=C(Cl)Cl)C1C(=O)OC(C#N)c1ccc(F)c(Oc2ccccc2)c1 (stereo not shown) [Cyfluthrin]
LT50 (95% confidence intervals) (black cutworm; 3rd instar, cyfluthrin […], isolate O43NEW 1×10^4 cfu/mL): 8.82 days | LT50 Chem. (black cutworm; Cyfluthrin alone […]): 8.82 days | LT50 Chem. (cabbage looper [3]; cabbage looper, Cyfluthrin alone […]): 7.33 days | % Mortality (4DAT) (cabbage looper [3]; in vivo): 30% | % Mortality (5DAT) (cabbage looper [3]; in vivo): 50% | LT75 (95% confidence intervals) (cabbage looper [3]; in vivo): 7.326 days

CN1COCN(Cc2cnc(Cl)s2)/C1=N\[N+](=O)[O-] [Thiamethoxam]
LT50 (95% confidence intervals) in days (cabbage looper [1]; 3rd instar cabbage looper, thiamethoxam 150 mg/L, O43NEW undiluted filtrate, alone or combined): 6.97 (5.92-8.22) days | LT50 Chem. (cabbage looper [1]; thiamethoxam 150 mg/L): 6.97 days | % Mort. Chem. (cabbage looper [1]; thiamethoxam 150 mg/L, DAT column prints 62): 1.1% | mortality at 150 µg/mL (diamondback moth [4]; [5]): 11% | mortality at 150 µg/mL (diamondback moth [4]; [6]): 16% | % Mort. Chem. (diamondback moth [4]; Thiamethoxam 150 mg/L, 6 DAT): 16% | LT50 Chem. (diamondback moth [4]; Thiamethoxam alone 150 mg/L): 10.09 days

CC[S+]([O-])c1c(C#N)nn(-c2c(Cl)cc(C(F)(F)F)cc2Cl)c1N (stereo not shown) [Ethiprole]
LT50 (95% confidence intervals) (Colorado potato beetle; 4th instar larva, ethiprole 120 mg/L): 8.90 days | % Mort. Chem. (Colorado potato beetle; Ethiprole 120 mg/L): 21% | LT50 Chem. (Colorado potato beetle; Ethiprole alone 120 mg/L): 8.90 days | mortality at 120 µg/mL (Colorado potato beetle; 72 h, read-out: % Mortality (3DAT)): 21% | mortality at 120 µg/mL (Colorado potato beetle; [7]): 21% | mortality at 120 µg/mL (Colorado potato beetle; [5]): 21% | mortality at 120 µg/mL (Colorado potato beetle; [6]): 37%

CC1(C)[C@H](C(=O)O[C@H](C#N)c2cccc(Oc3ccccc3)c2)[C@@H]1C=C(Br)Br [Deltamethrin]
LT50 (95% confidence intervals) (Colorado potato beetle; 3rd instar larva, deltamethrin 0.88 mg/L): 11.6 days | % Mort. Chem. (Colorado potato beetle; Deltamethrin 0.88 mg/L): 30% | LT50 Chem. (Colorado potato beetle; Deltamethrin alone 0.88 mg/L): 11.60 days | mortality at 0.88 µg/mL (Colorado potato beetle; [8]): 30% | mortality at 0.88 µg/mL (Colorado potato beetle; [5]): 30% | mortality at 0.88 µg/mL (Colorado potato beetle; [6]): 30% | mortality at 0.88 µg/mL (Colorado potato beetle; [9]): 30% | mortality at 0.88 µg/mL (Colorado potato beetle; 216 h, read-out: % Mortality (9DAT)): 30% | % Mortality (3DAT) (black cutworm; [10]): 5% | % Mortality (6DAT) (black cutworm; [10]): 35% | % Mortality (9DAT) (black cutworm; [10]): 55% | % Mortality (10DAT) (black cutworm; [10]): 63% | LT50 (95% confidence intervals) (black cutworm; [10]): 7.67 days | % Mortality (3DAT) (black cutworm; [11]): 45% | LT50 (95% confidence intervals) (black cutworm; [11]): 3.37 days | % Mort. Chem. (black cutworm; Deltamethrin 0.175 mg/L, 6 DAT): 35% | % Mort. Chem. (black cutworm; Deltamethrin 1.75 mg/L, 3 DAT): 45% | LT50 Chem. (black cutworm; Deltamethrin alone 0.175 mg/L): 7.67 days | LT50 Chem. (black cutworm; Deltamethrin alone 1.75 mg/L): 3.37 days | LT50 (95% confidence intervals) (diamondback moth [4]; 3rd instar, deltamethrin 0.29 mg/L, isolate O43NEW 1×10^3 cfu/mL): 11.58 days | mortality at 0.29 µg/mL (diamondback moth [4]; [8]): 0% | mortality at 0.29 µg/mL (diamondback moth [4]; [7]): 16% | mortality at 0.29 µg/mL (diamondback moth [4]; [9]): 21% | mortality at 0.29 µg/mL (diamondback moth [4]; 240 h, read-out: % Mortality (10DAT)): 32% | mortality at 0.29 µg/mL (diamondback moth [4]; 336 h, read-out: % Mortality (14DAT)): 54% | mortality at 0.29 µg/mL (diamondback moth [4]; […], read-out: % Mortality (8DAT)): 24% | % Mort. Chem. (diamondback moth [4]; Deltamethrin 0.29 mg/L, 8 DAT): 24% | LT50 Chem. (diamondback moth [4]; Deltamethrin alone 0.29 mg/L): 11.58 days | LT50 (95% confidence intervals) (diamondback moth [2]; deltamethrin 0.29 mg/L, O43NEW filtrate 1%): 11.58 days | LT50 (95% confidence intervals) (diamondback moth [2]; deltamethrin […], O333A4 filtrate 1%): 12.78 days | LT50 Chem. (diamondback moth [2]; deltamethrin 0.29 mg/L): 11.58 days | % Mort. Chem. (diamondback moth [2]; deltamethrin 0.29 mg/L, 4 DAT): 16% | LT50 Chem. (diamondback moth [2]; deltamethrin […]): 12.78 days | mortality at 0.29 µg/mL (diamondback moth [2]; 48 h, read-out: % Mortality (2DAT), 2nd instar diamondback moth, deltamethrin 0.29 mg/L, O43NEW filtrate 1%, 2 DAT): 0% | mortality at 0.29 µg/mL (diamondback moth [2]; 72 h, read-out: % Mortality (3DAT), 2nd instar diamondback moth, deltamethrin 0.29 mg/L, O43NEW filtrate 1%, 3 DAT): 5% | mortality at 0.29 µg/mL (diamondback moth [2]; 96 h, read-out: % Mortality (4DAT), 2nd instar diamondback moth, deltamethrin 0.29 mg/L, O43NEW filtrate 1%, 4 DAT): 16% | mortality at 0.29 µg/mL (diamondback moth [2]; 168 h, read-out: % Mortality (7DAT), 2nd instar diamondback moth, deltamethrin 0.29 mg/L, O43NEW filtrate 1%, 7 DAT): 21% | mortality at 0.29 µg/mL (diamondback moth [2]; 216 h, read-out: % Mortality (9DAT), 2nd instar diamondback moth, deltamethrin 0.29 mg/L, O43NEW filtrate 1%, 9 DAT): 25%
